According to publication PMC8557901 (Microbiology Spectrum, 2021):

Columns and labels:
[1] = system: P. falciparum F32-ART5 (artemisinin-resistant); assay: Standard in vitro chemosensitivity assay (hypoxanthine uptake), F32-ART5; assay type: cell-based; settings: Plasmodium falciparum, F32, 48 h, read-out: Mean EC50 ± SD
Method: (§1) The Plasmodium falciparum artemisinin-resistant strain F32-ART5 and its twin artemisinin-sensitive line F32-TEM ([30], [31]) were cultivated at 37°C with 5% CO2 in human red blood cells (EFS [French Blood Bank]) diluted to 2% hematocrit in RPMI 1640 medium supplemented with 5% human serum (EFS) as previously reported ([47]).
(§2) In vitro susceptibility of P. falciparum parasites was determined by using the standard hypoxanthine uptake inhibition assay as described previously ([51]) with some modifications ([52]). After D-sorbitol treatment, parasites synchronized at the ring stage were exposed for 48 h, with [^3H]hypoxanthine (Perkin Elmer, France), to a range of concentrations of the different tested compounds. […] Each result represents 3 independent experiments.

[2] = system: P. falciparum F32-TEM (artemisinin-sensitive); assay: Standard in vitro chemosensitivity assay (hypoxanthine uptake), F32-TEM; assay type: cell-based; settings: Plasmodium falciparum, F32, 48 h, read-out: Mean EC50 ± SD
Method: as §1, §2

[3] = system: P. falciparum F32-ART5 and F32-TEM; assay: Recrudescence assay F32-ART5 versus F32-TEM; assay type: cell-based, Plasmodium falciparum; settings: 48 h drug exposure; M1 2.5 and 10 μM; artemisinin 18 μM
Method: as §1
A recrudescence assay was performed to evaluate the ability of the F32-ART5 parasite line to survive drug exposure in comparison to that of the F32-TEM parasite line ([30], [31]) in order to evaluate the risk of cross-resistance between artemisinin and M1. D-Sorbitol-synchronized ring-stage parasites at 3% parasitemia (2% hematocrit) were exposed to the drug for 48 h. After drug exposure, parasite cultures were washed with RPMI 1640 medium and replaced in normal drug-free culture conditions. The time to parasite recrudescence was determined as the time required to reach initial parasitemia. […] Each experiment, performed in parallel for F32-ART5 and F32-TEM cultivated under the same conditions to generate paired results, was carried out at least three times independently and data statistically analyzed.
A statistical analysis (log-rank test) was carried out on data from the recrudescence assay and the QSA using a Kaplan-Meier survival analysis considering censored data. The final event was defined as the time necessary for cultures to reach initial parasitemia. […]

## C[C@@H]1CC[C@H]2[C@@H](C)C(=O)O[C@@H]3O[C@@]4(C)CC[C@@H]1[C@]32OO4 [Artemisinin, reference compound]
[1]
  EC50: 11 ± 0.5 nM
[2]
  EC50: 11.1 ± 1.6 nM
[3]
  recrudescence of F32-ART5 versus F32-TEM (cross-resistance with artemisinin): faster recrudescence for F32-ART5 than for F32-TEM
